# Results published in US20240141291A1, “FUNCTIONAL BRAIN REGION-SPECIFIC NEURAL SPHEROIDS AND METHODS OF USE” (THE UNITED STATES OF AMERICA, AS REPRESENTED BY THE …, priority 2021, published 2024).
# Values joined by “and” are separate entries in the source; they are usually repeats but may differ in a detail not shown here. Equal entries are not always repeated. “Also recorded” adds a separate entry of the source.
# Tests used:
# Assay type in all cases: cell-based, human
# A53T VTA-like spheroids = assay: Parkinson's Disease model, FLIPR calcium activity after compound treatment; conditions: 90-min after treatment; for reversal of A53T-induced deficits (peak count, peak width): Ropinirole 1, 3 and 10 μM
# Protocol: (§1) Fluorescent Imaging plate Reader (FLIPR): The FLIPR Penta (Molecular Devices) was used to assess calcium fluorescence across the 384-well plate simultaneously and to observe changes after treatment with compounds. The evening before calcium activity was measured, plates were sealed with parafilm and centrifuged at 1485×g for 2-min to get spheroids to the bottom of the well in a centered position. On the day of recording, the plate used for recording was placed in the read plate position inside of the FLIPR following the 2-hour Cal6 incubation at 37° C. Standard filter sets were used for Cal6 imaging with excitation set at 470-495 and emission at 515-575 nm. Fluorescent image reads were taken every 0.6 seconds for all plates, with exposure time of 0.03 and 50% excitation intensity. Recordings from the initial seven plates consisted of 1000 reads and were 10-min recordings with 2.5 gain, while the final two plates consisted of 500 reads (5-min recordings) with a gain of 2. Baseline recordings were taken across all plates and, if applicable, more recordings were obtained 1-, 30-, 60-, and/or 90-min after compound treatment. In between recordings, plates were wrapped in foil and placed back in the incubator at 37° C.
# (§2) 384 Pin Tool: A 384 well pin tool (Rexroth) was used to transfer compounds simultaneously to the spheroid plate. Prior to compound transfer, the pin tool went through four wash cycles where pins were rinsed with dimethyl sulfoxide (DMSO), followed by methanol, then deionized (DI) water, to ensure the pins were clean. Compound transfer via the 384 well pin tool occurred after the baseline recordings with the fluorescent imaging plate reader (FLIPR). Here, 60 nL of compound suspended in DMSO was transferred to 60 µL of media in each well, diluting the compounds by 1000-fold and giving a final DMSO concentration of 0.1%. Immediately after compound transfer, the spheroid plate was either placed back inside of the FLIPR for a recording 1-min after compound treatment or placed back in the incubator if post-treatment recording was >30-min after compound transfer.
# Calcium Activity Analysis: Calcium oscillatory peak detection data from FLIPR recordings was obtained through ScreenWorks 5.1 (Molecular Devices). Initial peak detection analysis occurred within ScreenWorks 5.1 via the PeakPro 2.0 module. Here, all parameters were set to be the same for all wells per plate. The event polarity was always set to positive and search vector length always set to 11. The baseline, trigger level, which is automatically set to 10% above the baseline, and dynamic threshold, which is the threshold for peak detection were automatically identified by the PeakPro 2.0 module. Wells were manually checked to ensure these parameters were accurately identified prior to analysis. After analysis, data from 18 peak parameters (mean peak amplitude, peak amplitude standard deviation (SD), peak count, mean peak rate, peak rate SD, peak spacing, peaking spacing SD, mean number of EAD-like peaks per well, CTD @ 50% (peak width at 50% amplitude), CTD @ 90% (peak width at 90% amplitude), rise slope, rise slope SD, mean peak rise time, peak rise time SD, decay slope, decay slope SD, mean peak decay time, and peak decay time SD) was exported to a STATALL file that could be converted to a Microsoft Excel spreadsheet. There, percent coefficient of variance (% CV) was calculated within each plate to measure how variable each parameter exported was. […] All data was normalized to the average of DMSO-treated control wells within each plate. […] Bar plots with individual values are reported as mean±SEM.
# PFC-like spheroids [1] = assay: FLIPR calcium activity profiling, compound addition (Examples 1-2); conditions: FLIPR recordings 1-, 30-, 70-min after compound (t1, t30, t70)
# Protocol: (§3) To examine neuronal activity changes as a response to compound treatment, calcium activity was assessed using a Fluorescent Imaging Plate Reader (FLIPR) Penta (Molecular Devices). FLIPR Calcium 6 Assay kits were purchased from Molecular Devices (PN: R8190). On day of activity profiling, 96-well or 384-well ULA round bottom (black sides, clear bottom) plates containing spheroids were removed from incubator. Fresh FLIPR Calcium 6 dye was prepared by diluting each vial in 10 ml of freshly prepared, phenol-free complete spheroid maturation media and vortexed for 2 minutes. Half of the media was removed from each well (45 μl from 384-well plate wells, 100 ul from 96-well plate wells) and replaced with equal amounts freshly prepared FLIPR Calcium 6 dye, followed by a 2-hour incubation in the dark in a 37 C, 5% CO2 incubator. After 2-hours, plates were removed and kept at room temperature for 10 minutes, then imaged and calcium activity read using the Molecular Devices FLIPR Penta High-Throughput Cellular Screening System. The FLIPR incubator stage was pre-warmed to 37° C. approximately 30 minutes prior to imaging. Standard filter sets were used for Cal6 imaging (excitation 470-495 and emission 515-575 nm). FLIPR recordings were obtained with the camera in normal mode, and settings included: gain was set to 2.5, exposure time to 0.03 seconds, and excitation intensity to 50%. Fluorescent image reads were taken every 0.6 seconds for a total of 1000 reads over a total run time of 10 minutes. Four recordings total were captured: baseline activity, 1-min after compound treatment, 30- and 70-min after compound treatment.
# (§4) After baseline activity, cell plates were removed from the FLIPR and transferred to a 384-well pin tool instrument. Prior to compound addition, the pin tool was subjected to 4 wash cycles exposing the pins to water, methanol, and DMSO each time. Compounds, including either “QC compounds” (compounds with known mechanism of action, listed in results) or the mu opioid receptor selective-agonist DAMGO, were transferred from a compound source plate to the 384-well spheroid plate. Immediately after compound transfer, the cell plate was placed back in the FLIPR for the recording that was 1-min after compound transfer to begin. After this 10-min recording, another recording was captured 30-min after compounds were transferred. After the 30-min recording, the plate was again removed from the FLIPR and transferred to the pin tool instrument. During this phase of compound transfer, naloxone was transferred to wells that received DAMGO during the first compound transfer. Following this second compound transfer, the cell plate was placed back in the FLIPR and a final recording was obtained 30-min later, and 70-min after the initial compound transfer.
# (§5) The FLIPR software ScreenWorks PeakPro 2.0 was used for the initial analysis of calcium activity using automated peak detection settings. With these settings, average peak statistics over each 10-min recording for each well were exported from PeakPro to Microsoft Excel. ScreenWorks Peak Pro 2.0 software was used to extract 17 activity features describing different aspects of calcium activity profiles. These included peak amplitude (PkA), peak amplitude standard deviation (PkASD), peak count (PkCt), peak rate (measured as peaks per minute, PpM), peak rate SD, peak spacing (PkSp), peak spacing SD (PkSpSD), peak spacing regularity, area under the curve (AUC), AUC SD, peak rise slope, peak rise slope SD, peak rise time (PkRt), peak ride time SD (PkRtSD), peak decay slope, peak decay slope SD, peak decay time (PkDt), and peak decay time SD (PkDtSD). To assess variability of these peak parameters, percent coefficients of variance (CV) were calculated by dividing the standard deviation/mean and multiplying by 100 for each designer spheroid type, and those with % CV's […] 20% were removed from future analysis. […]
# VTA-like spheroids [2] = assay: as above; conditions: FLIPR recordings 1-, 30-, 70-min after compound (t1, t30, t70)
# Protocol: as §3, §4, §5
# PFC-like spheroids [3] = assay: FLIPR calcium activity with Cal6 dye, control compounds / DAMGO / AD compounds (Example 3); conditions: for effect on peak count and peak spacing: 10 μM DAMGO, recording 30-min later, then naloxone
# Protocol: (§6) Viruses and dyes: To assess calcium activity, the calcium dye, Cal6 (Molecular Devices), and genetically encoded calcium indicator, GCaMP6f (Addgene, cat #100836-AAV9) were used. Cal6 was used according to manufacturer's instructions and 10 mL of maintenance media was added to each vial. Two hours before activity was recorded, half of the spheroid media was exchanged for media with Cal6. The plates were covered in foil and placed in the incubator at 37° C. during the 2-hour (hr) incubation period. Since all viruses used were adeno-associated viruses (AAV), they were added to the media on day 7 to allow for 2-weeks expression prior to recording or testing. All viruses were added to the media at 2e5 multiplicity of infection (MOI). GCaMP6f infection occurred via an adeno-associated virus serotype 9 (AAV9) expressed under the CAG promoter for expression in both neurons and astrocytes. Designer receptors exclusively activated by designer drugs (DREADDs) viruses were used to stimulate and inhibit neuronal activity within spheroids. Both viruses were retrograde AAVs expressed under the human Synapsin promoter for expression in neurons and fused with an mCherry fluorophore. The DREADDs viruses either inserted the designer receptor hM4D(Gi), an inhibitory G-protein coupled receptor, or hM3D(Gq), a stimulatory G-protein coupled receptor. Clozapine-N-oxide (CNO, Tocris cat #4936) was suspended in dimethyl sulfoxide (DMSO) and used as the designer drug to activate the DREADDs viruses. CNO was tested at 1 and 10 μM, with data reported from the 1 μM concentration.
# as §1
# DAMGO was reconstituted in water at a 1 mM concentration and diluted in media to 20 µM such that spheroids would be treated with a final concentration of 10 μM after the half media exchange. Two aspects of OUD were modeled, chronic treatment along with opioid withdrawal. For spheroids subjected to chronic DAMGO treatment, 20 μM DAMGO in maintenance media was added via half media exchange beginning on day 10, with treatments occurring every other day for 10 days, giving a total of five treatments.
# as §2, with “0.1%.” for “0.1%. Immediately after compound transfer, the spheroid plate was either placed back inside of the FLIPR for a recording 1-min after compound treatment or placed back in the incubator if post-treatment recording was >30-min after compound transfer.”
# VTA-like spheroids [4] = assay: FLIPR calcium activity with Cal6 dye, control compounds / DAMGO (Example 3); conditions: VTA-like spheroids, chronic DAMGO pre-treatment
# Protocol: as §6, §1
# DAMGO was reconstituted in water at a 1 mM concentration and diluted in media to 20 µM such that spheroids would be treated with a final concentration of 10 μM after the half media exchange. Two aspects of OUD were modeled, chronic treatment along with opioid withdrawal. […]
# 384 Pin Tool: A 384 well pin tool (Rexroth) was used to transfer compounds simultaneously to the spheroid plate. […] Compound transfer via the 384 well pin tool occurred after the baseline recordings with the fluorescent imaging plate reader (FLIPR). […]
smiles,measurement,setting,value
OC(CCN1CCCCC1)(c1ccccc1)C1CCCCC1 (stereo not shown) [Trihexyphenidyl],"reversal of A53T-induced deficits (peak count, peak width)",A53T VTA-like spheroids,only Ropinirole was found to reverse this 90-min after treatment
"Nc1ccncc1 [4-AP, 4-aminopyradine]",effect on calcium activity peak parameters compared to DMSO controls,PFC-like spheroids [1],"significantly increased PkCt 1-min after exposure; also recorded: For the t30 recording, there was a significant increase in peaks per minute (PpM) and the decay slope; also recorded: Significant increases in PkCt and PpM as well as a reduction in PkSp resulted from 4-AP 70-min after exposure"
same,effect on calcium activity peak parameters compared to DMSO controls,VTA-like spheroids [2],"did not have any impact on PkCt, PkA, PpM, or PkSp at t1, t30, or t70; also recorded: significantly reduced PkDt at t1; also recorded: trend toward statistical significance for increasing the decay slope"
CCN(C)C(=O)Oc1cccc([C@H](C)N(C)C)c1 [Rivastigmine],effect on peak count and spacing in Wt PFC-like spheroids,"PFC-like spheroids [3]; Wt PFC-like spheroids, 90 min after treatment",differences were observed in all groups except Rivastigmine
NC(CCCP(=O)(O)O)C(=O)O (stereo not shown) [AP5],effect on calcium activity peak parameters compared to DMSO controls,PFC-like spheroids [1],did not impact calcium activity
same,effect on calcium activity peak parameters compared to DMSO controls,VTA-like spheroids [2],did not impact calcium activity
CN1[C@@H]2CC[C@H]1C[C@@H](OC(c1ccccc1)c1ccccc1)C2 [Benztropine],"reversal of A53T-induced deficits (peak count, peak width)",A53T VTA-like spheroids,only Ropinirole was found to reverse this 90-min after treatment
C#CCN[C@@H]1CCc2ccccc21 [Rasagiline],"reversal of A53T-induced deficits (peak count, peak width)",A53T VTA-like spheroids,only Ropinirole was found to reverse this 90-min after treatment
Cc1ccc(C(=O)c2cc(O)c(O)c([N+](=O)[O-])c2)cc1 [Tolcapone],"reversal of A53T-induced deficits (peak count, peak width)",A53T VTA-like spheroids,only Ropinirole was found to reverse this 90-min after treatment
CCCN(CCC)CCc1cccc2c1CC(=O)N2 [Ropinirole],effect on subpeak count,A53T VTA-like spheroids,"3 and 10 μM, but not 1 μM, Ropinirole significantly reduced subpeak count"
same,"reversal of A53T-induced deficits (peak count, peak width)",A53T VTA-like spheroids,significantly reduce peak count and increase peak width to the level that they were no longer significantly different from Wt DMSO-treated control spheroids; also recorded: restored deficits across all 3 peak measures
NC12CC3CC(CC(C3)C1)C2 [Amantadine],"reversal of A53T-induced deficits (peak count, peak width)",A53T VTA-like spheroids,only Ropinirole was found to reverse this 90-min after treatment
C=CCN1CC[C@]23c4c5ccc(O)c4O[C@H]2C(=O)CC[C@@]3(O)[C@H]1C5 [naloxone],reversal of deficits induced by chronic opioid treatment,VTA-like spheroids [4],reverses deficits induced by chronic opioid treatment in PFC-like but not VTA-like spheroids
same,effect on peak count and peak spacing,PFC-like spheroids [3]; PFC-like chronic DAMGO-treated spheroids,those treated with naloxone no longer showed significant differences in these peak parameters compared to DMSO-treated controls; also recorded: reverses deficits induced by chronic opioid treatment in PFC-like but not VTA-like spheroids
same,effect on peak count and peak spacing,PFC-like spheroids [3]; PFC-like control spheroids,reversed deficits in peak count and spacing in acute DAMGO-treated control spheroids
N[C@@H](Cc1ccc(O)c(O)c1)C(=O)O [L-Dopa],"reversal of A53T-induced deficits (peak count, peak width)",A53T VTA-like spheroids,only Ropinirole was found to reverse this 90-min after treatment
N#Cc1cc2[nH]c(=O)c(=O)[nH]c2cc1[N+](=O)[O-] [CNQX],effect on calcium activity peak parameters compared to DMSO controls,PFC-like spheroids [1],total inhibition of calcium activity that lasted throughout the entire recording period
same,effect on calcium activity peak parameters compared to DMSO controls,VTA-like spheroids [2],"total inhibition of calcium activity during the t1 recording and 30-min after CNQX treatment, PkCt and PpM were significantly increased while PkA, PkSp, and PkDt were all still reduced and had no impact on calcium activity in VTA-like spheroids during the t70 recording"
same,functional response (calcium activity peak parameters) to control compound,"PFC-like spheroids [3]; PFC-like spheroids, recordings 1-, 30-, 60-min after treatment","inhibited all activity in PFC-like spheroids for all three recordings (1-, 30-, and 60-min); also recorded: total inhibition that lasted throughout the 1-hr period"
